# Measurements as given in patent US12655101B2, “Small molecules with antibacterial activity” (NEW MEXICO TECH UNIVERSITY RESEARCH PARK CORPORATION, priority 2021, dated 2026).
# Where two headings read alike, the source gives them in different places.
# Key:
# Type in all cases: cell-based
# [1] = test system: A. baumannii ATCC 15151; assay: Filamentation with ciprofloxacin and Compound 25 on A. baumannii; settings: 18 hours
# Procedure: A. baumannii ATCC 15151: […] The culture tubes were incubated for 18 hours at 37° C. After 18 hours incubation, took 3 μL of cells from each well and plated on microscope slide to observe the following: […]
# [2] = test system: S. aureus; assay: Evolution of resistance in S. aureus over 32 days; settings: Staphylococcus aureus
# Description: Over a period of 32 days, S. aureus cells were exposed to sub-inhibitory concentrations of the indicated compound, norfloxacin, or oxacillin and sub-cultured at the newly emerged, sub-inhibitory concentration.
# [3] = test system: UmuC (error-prone polymerase); assay: UmuC gene expression by rtPCR in S. aureus; settings: sub-inhibitory norfloxacin
# Description: RecA and error-prone polymerase subunit UmuC transcripts were quantitatively measured using rtPCR in S. aureus. S. aureus was challenged with sub-inhibitory concentrations of DNA-damaging norfloxacin.
# [4] = test system: A. baumannii ATCC BAA-1797; assay: MIC on A. baumannii ATCC BAA-1797; settings: Acinetobacter baumannii
# Procedure: A. baumannii: A. baumannii ATCC BAA-1797 was grown from a glycerol stock by placing a small volume of cells onto a MHA plate. The MHA plate was incubated overnight at 37° C. A single colony was used to inoculate MHB to obtain a bacterial broth suspension. The MHB broth suspension was grown at 37° C. on a rotary shaking incubator (100 rpm) for 12 hours. The bacterial cell concentration was adjusted to ˜5×10^5 CFU/mL in MHB or MHB+10%, 20% or 40% FBS using OD at 595 nm. 500 μL aliquots of the adjusted bacterial cell suspension were placed into borosilicate glass tubes. The cell suspensions were treated with a compound of interest, and the treatments were serially diluted two-fold. The culture tubes were incubated for 18 hours at 37° C. Efficacy was either assessed visually or by adding 10% v/v MTT (5 mg/mL stock) after the 18 hour incubation period. The cell suspensions were subsequently incubated for 10 minutes to allow the MTT reagent to carry out the colorimetric reaction. The OD was read at 595 nm.
# [5] = test system: A. baumannii ATCC 15151; assay: DNA degradation (agarose gel), drug-sensitive strain; settings: 1.5% H2O2, 10 μg/mL ciprofloxacin, 100 μM Compound 25; 3 hours
# [6] = test system: E. coli pNMT41; assay: 6-chloro-4-methyl-umbelliferyl-β-D-glucuronide assay for beta-glucuronidase (inner membrane disruption); settings: 10 μg/mL PME
# Procedure: E. coli pNMT 41 was grown from a glycerol stock by placing a small volume of cells onto a MHA plate. The MHA plate was incubated overnight at 37° C. A single colony was subsequently used to inoculate MHB+100 μg/mL ampicillin to obtain a bacterial broth suspension. The MHB broth suspension was grown at 37° C. on a rotary shaking incubator (100 rpm) for 12 hours. The bacterial cell concentration was adjusted to ˜1×10^7 CFU/mL in MHB using OD at 595 nm. The cells were washed 3× by spinning by centrifuge and washing with 500 μL medium 200. The cells were resuspended in 7 mL medium 200. The cells were treated with 10 μM melittin, 6, 12, 24, and 100 μM Compound 25, and 10 μg/mL PME. The cells were incubated at 37° C. for 30 minutes. 1 μM umbelliferyl was added, and the cells were incubated further for 10 minutes at 37° C.
# The cells were then incubated at 37° C. for 45 minutes. 1 μM umbelliferyl was added, and the cells were incubated further for 10 minutes at 37° C.
# [7] = test system: E. coli pUC18; assay: Nitrocefin β-lactamase assay (outer membrane disruption); settings: 10 μM melittin; 10 μg/mL PME; 6, 12, 24 μM Compound 25 and 26; 100 μM Compound 27; 50 μM Compound 15; 30 minutes
# Procedure: E. coli pUC18 was grown from a glycerol stock by placing a small volume of cells onto a MHA plate. The MHA plate was incubated overnight at 37° C. A single colony was subsequently used to inoculate MHB+100 μg/mL ampicillin to obtain a bacterial broth suspension. The MHB broth suspension was grown at 37° C. on a rotary shaking incubator (100 rpm) for 12 hours. The cells were washed 3× by centrifuging and washing with 1 mL medium 200. The washed bacterial cell concentration was adjusted to ˜1×10^7 CFU/mL in medium 200 using OD at 595 nm. The cells were treated cells with 10 μM melittin; 6, 12, 24 μM Compound 25; 6 μM, 12 μM, 24 μM Compound 26; 100 μM Compound 27; 50 μM Compound 15; and 10 μg/mL PME. The cells were incubated at 37° C. for 30 minutes; added 50 μM nitrocefin and incubated 10 minutes at 37° C.
# pUC18 E. coli carry an ampicillin resistance gene and produce β-lactamase.
# [8] = test system: A. baumannii ATCC BAA-1797; assay: Colony counts of A. baumannii ATCC BAA-1797 treated with 4xMIC for 16 hours; settings: 1 μg/mL PME, 1 mM PAO, compounds at 4xMIC
# [9] = 10 μM melittin, 6, 12, 24, 100 μM Compound 25, 30 minutes
compound,measurement,setting,value
"O=C(O)c1cn(C2CC2)c2cc(N3CCNCC3)c(F)cc2c1=O [Ciprofloxacin, reference compound]",cell morphology and growth,[1]; 125 ng/mL ciprofloxacin,largely elongated in morphology and growth inhibition was observed
same,cell morphology and growth,[1]; single agent: 50 ng/mL ciprofloxacin or […] Compound 25,slightly elongated and some growth inhibition was observed
"COc1ccc(/N=N/c2c(-c3ccc(OC)cc3)[nH]c3ccccc23)cc1 [Compound 46, (E)-2-(4-methoxyphenyl)-3-((4-methoxyphenyl)diazenyl)-1H-indole]",MIC,"[2]; 0 h, read-out: Initial MIC Day 0",1 to 2 µM
same,MIC,[2]; read-out: Final MIC Day 32,1 to 2 µM
same,UmuC (error-prone polymerase) gene expression,[3],transcriptional inhibition
same,MIC,"[4]; ATCCBAA1797, 18 h, read-out: MIC in the presence of 40% FBS, A. baumannii ATCC BAA-1797, 40% FBS",> 100 µM
same,MIC,"[4]; ATCCBAA1797, A. baumannii ATCC BAA-1797, absence of serum, read-out: MIC in the absence of serum",> 100 µM
"OO [Compound H2O2, hydrogen peroxide, reference compound]",DNA degradation,[5],degraded DNA completely
"CC[C@H](C)[C@H](NC(=O)CN)C(=O)NCC(=O)N[C@@H](C)C(=O)N[C@H](C(=O)N[C@@H](CC(C)C)C(=O)N[C@@H](CCCCN)C(=O)N[C@H](C(=O)N[C@@H](CC(C)C)C(=O)N[C@H](C(=O)N[C@H](C(=O)NCC(=O)N[C@@H](CC(C)C)C(=O)N1CCC[C@H]1C(=O)N[C@@H](C)C(=O)N[C@@H](CC(C)C)C(=O)N[C@H](C(=O)N[C@@H](CO)C(=O)N[C@@H](Cc1c[nH]c2ccccc12)C(=O)N[C@H](C(=O)N[C@@H](CCCCN)C(=O)N[C@@H](CCCNC(=N)N)C(=O)N[C@@H](CCCCN)C(=O)N[C@@H](CCCNC(=N)N)C(=O)N[C@@H](CCC(N)=O)C(=O)N[C@@H](CCC(N)=O)C(N)=O)[C@@H](C)CC)[C@@H](C)CC)[C@@H](C)O)[C@@H](C)O)C(C)C)C(C)C [Melittin, melittin]",inner membrane disruption (GUS fluorescence),[6]; [9],disrupt inner membrane
same,"outer membrane disruption (β-lactamase leakage, nitrocefin colour)",[7],high concentration of β-lactamase in the supernatant
polymyxin E [PME],inner membrane disruption (GUS fluorescence),[6]; [9],disrupt inner membrane
same,inner membrane disruption (GUS fluorescence),"[6]; separate experiment, 12.5 μM Compound 14, 45 minutes",disrupts inner membrane
same,cell viability after 16 hours of treatment,[8],cells were still viable
same,"outer membrane disruption (β-lactamase leakage, nitrocefin colour)",[7],high concentration of β-lactamase in the supernatant
